Experimental findings from patent US20230015308A1, “SUBSTITUTED THIAZOLE AROMATIC RING-BASED COMPOUND AND PREPARATION METHOD THEREFOR, HERBICIDAL COMPOSITION AND USE THEREOF” (QINGDAO KINGAGROOT CHEMICAL COMPOUND CO., LTD., priority 2019, published 2023) are described below.

Test in all cases: Weeding effect in post-emergence stage (greenhouse pot test)
Common to all, as to type: in vivo
Holding throughout (details): 15 g a.i./ha, 3 weeks after application

In experiment [1] the test system is Setaria viridis. From the text: (§1) The activity level criteria for plant damage (i.e., growth control rate) are as follows:
(§2) Level 5: growth control rate is above 85%;
(§3) Level 4: growth control rate is greater than or equal to 60% and less than 85%;
(§4) Level 3: growth control rate is greater than or equal to 40% and less than 60%;
(§5) Level 2: growth control rate is greater than or equal to 20% and less than 40%;
(§6) Level 1: growth control rate is greater than or equal to 5% and less than 20%;
(§7) Level 0: growth control rate is less than 5%.
(§8) The above growth control rates are fresh weight control rates.
(§9) Experiment on weeding effect in post-emergence stage:
(§10) Monocotyledonous and dicotyledonous weed seeds (Descurainia sophia, Capsella bursa-pastoris, Abutilon theophrasti, Galium aparine, Stellaria media, Lithospermum arvense, Rorippa indica, Alopecurus aequalis, Alopecurus japonicus, Beckmannia syzigachne, Sclerochloa dura, Conyza Canadensis, Phleum paniculatum, Veronica didyma Tenore, Eleusine indica, Bromus japonicus, Aegilops tauschii, Phalaris arundinacea, Amaranthus retroflexus, Chenopodium album, Commelina communis, Sonchus arvensis, Convolvulus arvensis, Cirsium setosum, Solanum nigrum, Acalypha australis, Digitaria sanguinalis, Echinochloa crusgalli, Setaria viridis, Setaria glauca, Leptochloa chinensis, Monochoria vaginalis, Sagittaria trifolia, Scirpus juncoides, Cyperus rotundus, Cyperus iria, Cyperus difformis, Fimbristylis, Portulaca oleracea, Xanthium sibiricum, Pharbitis nil) and major crop seeds (wheat, corn, rice, soybean, cotton, oilseed rape, millet, sorghum, potato, sesame, ricinus) were placed in plastic pots filled with soil, then covered with 0.5-2 cm of soil, allowed to grow in a good greenhouse environment. After 2 weeks of sowing, the test plants were treated in the 2-3 leaf stage. The tested compounds of the present invention were respectively dissolved in acetone, then added with Tween 80 and 1.5 liter/ha of emulsifiable concentrate of methyl oleate as synergist, diluted with a certain amount of water to obtain a solution with a certain concentration, and sprayed with a spray tower onto the plants. After the application, the plants were cultured for 3 weeks in the greenhouse, and then the experimental results of the weeding were counted. The doses of the used compounds were 500, 250, 125, 60, 15 g a.i./ha, and the averages were obtained by repeating for three times.

Experiment [2] has as its system Amaranthus retroflexus.
Description: as §1, §2, §3, §4, §5, §6, §7, §8, §9, §10

Experiment [3] has as its system Digitaria sanguinalis.
Description: as §1, §2, §3, §4, §5, §6, §7, §8, §9, §10

The test system of experiment [4] is Echinochloa crusgalli.
Description: as §1, §2, §3, §4, §5, §6, §7, §8, §9, §10

Experiment [5] relates to Galium aparine.
Description: as §1, §2, §3, §4, §5, §6, §7, §8, §9, §10

In experiment [6] the test system is Beckmannia syzigachne.
Description: as §1, §2, §3, §4, §5, §6, §7, §8, §9, §10

For experiment [7], the system named is Veronica didyma Tenore.
Description: as §1, §2, §3, §4, §5, §6, §7, §8, §9, §10

The subject of experiment [8] is Abutilon theophrasti.
Description: as §1, §2, §3, §4, §5, §6, §7, §8, §9, §10

The test system of experiment [9] is Alopecurus japonicus.
Description: as §1, §2, §3, §4, §5, §6, §7, §8, §9, §10

Turning to `Cn1c(C(F)(F)F)cc(=O)n(-c2cc(-c3ncc(C(=O)OCC4CCCO4)s3)c(Cl)cc2F)c1=O` (stereo not drawn) [1-33], in [1], the “Setaria viridis, activity level (fresh weight growth control rate)” value (“Setaria viridis, activity level” below) was 5 (Level 5: growth control rate is above 85%). Further, the “Amaranthus retroflexus, activity level (fresh weight growth control rate)” value (“Amaranthus retroflexus, activity level” for short) in experiment [2] was 5 (Level 5: growth control rate is above 85%). In addition, the “Digitaria sanguinalis, activity level (fresh weight growth control rate)” value (“Digitaria sanguinalis, activity level” for short) in [3] was 5 (Level 5: growth control rate is above 85%). For the same compound, in experiment [4], the “Echinochloa crusgalli, activity level (fresh weight growth control rate)” value (“Echinochloa crusgalli, activity level” below) was 5 (Level 5: growth control rate is above 85%). Further, the “Galium aparine, activity level (fresh weight growth control rate)” value (shortened to “Galium aparine, activity level”) in experiment [5] is listed as 5 (Level 5: growth control rate is above 85%). For the same compound, in [6], the “Beckmannia syzigachne, activity level (fresh weight growth control rate)” value (from here on “Beckmannia syzigachne, activity level”) is 3 (Level 3: growth control rate is greater than or equal to 40% and less than 60%). In experiment [7], the “Veronica didyma Tenore, activity level (fresh weight growth control rate)” value (“Veronica didyma Tenore, activity level” below) is 5 (Level 5: growth control rate is above 85%). For the same compound, the “Abutilon theophrasti, activity level (fresh weight growth control rate)” value (“Abutilon theophrasti, activity level” below) in experiment [8] is 5 (Level 5: growth control rate is above 85%). In addition, the “Alopecurus japonicus, activity level (fresh weight growth control rate)” value (from here on “Alopecurus japonicus, activity level”) in experiment [9] is 3 (Level 3: growth control rate is greater than or equal to 40% and less than 60%).
For `CCOC(=O)c1cnc(-c2cc(-n3c(=S)cc(C(F)(F)F)n(C)c3=O)c(F)cc2Cl)s1` [1-103], in [1], the “Setaria viridis, activity level” value is 5 (Level 5: growth control rate is above 85%). Also, the “Amaranthus retroflexus, activity level” value in experiment [2] was 5 (Level 5: growth control rate is above 85%). Besides, the “Digitaria sanguinalis, activity level” value in [3] was 5 (Level 5: growth control rate is above 85%). Further, the “Echinochloa crusgalli, activity level” value in [4] is 5 (Level 5: growth control rate is above 85%). For the same compound, the “Galium aparine, activity level” value in experiment [5] is on record as 5 (Level 5: growth control rate is above 85%). In addition, the “Beckmannia syzigachne, activity level” value in experiment [6] was 4 (Level 4: growth control rate is greater than or equal to 60% and less than 85%). In addition, the “Veronica didyma Tenore, activity level” value in experiment [7] is 5 (Level 5: growth control rate is above 85%). Further, the “Abutilon theophrasti, activity level” value in experiment [8] was 5 (Level 5: growth control rate is above 85%). Moreover, the “Alopecurus japonicus, activity level” value in [9] was 4 (Level 4: growth control rate is greater than or equal to 60% and less than 85%).
Take `CCOC(=O)c1cnc(-c2nc(-n3c(=O)cc(C(F)(F)F)n(C)c3=O)c(F)cc2Cl)s1` [1-107]: the “Setaria viridis, activity level” value in [1] is recorded as 5 (Level 5: growth control rate is above 85%). Besides, in experiment [2], the “Amaranthus retroflexus, activity level” value was 5 (Level 5: growth control rate is above 85%). Also, the “Digitaria sanguinalis, activity level” value in experiment [3] is 5 (Level 5: growth control rate is above 85%). Besides, the “Echinochloa crusgalli, activity level” value in experiment [4] was 5 (Level 5: growth control rate is above 85%). Further, the “Galium aparine, activity level” value in experiment [5] was 5 (Level 5: growth control rate is above 85%). Also, the “Beckmannia syzigachne, activity level” value in experiment [6] is 5 (Level 5: growth control rate is above 85%). The “Veronica didyma Tenore, activity level” value in [7] is given as 5 (Level 5: growth control rate is above 85%). In addition, the “Abutilon theophrasti, activity level” value in experiment [8] is given as 5 (Level 5: growth control rate is above 85%). Also, in [9], the “Alopecurus japonicus, activity level” value is reported as 5 (Level 5: growth control rate is above 85%).
Regarding `CCOC(=O)c1cnc(-c2cc(-n3c(=O)n(C)c(=S)n(C)c3=O)c(F)cc2Cl)s1` [1-113], the “Setaria viridis, activity level” value in experiment [1] is recorded as 5 (Level 5: growth control rate is above 85%). Moreover, the “Amaranthus retroflexus, activity level” value in experiment [2] is reported as 5 (Level 5: growth control rate is above 85%). Besides, the “Digitaria sanguinalis, activity level” value in experiment [3] was 4 (Level 4: growth control rate is greater than or equal to 60% and less than 85%). For the same compound, the “Echinochloa crusgalli, activity level” value in experiment [4] is 5 (Level 5: growth control rate is above 85%). For the same compound, the “Galium aparine, activity level” value in [5] is given as 5 (Level 5: growth control rate is above 85%). Further, in [6], the “Beckmannia syzigachne, activity level” value was 4 (Level 4: growth control rate is greater than or equal to 60% and less than 85%). Besides, the “Veronica didyma Tenore, activity level” value in experiment [7] is given as 5 (Level 5: growth control rate is above 85%). Besides, the “Abutilon theophrasti, activity level” value in experiment [8] is reported as 5 (Level 5: growth control rate is above 85%). Further, the “Alopecurus japonicus, activity level” value in [9] is 4 (Level 4: growth control rate is greater than or equal to 60% and less than 85%).
In the case of `CCOC(=O)c1cnc(-c2nc(-n3c(=O)n(C)c(=S)n(C)c3=O)c(F)cc2Cl)s1` [1-123], the “Setaria viridis, activity level” value in experiment [1] is 5 (Level 5: growth control rate is above 85%). Also, the “Amaranthus retroflexus, activity level” value in experiment [2] is recorded as 5 (Level 5: growth control rate is above 85%). The “Digitaria sanguinalis, activity level” value in [3] was 5 (Level 5: growth control rate is above 85%). In addition, the “Echinochloa crusgalli, activity level” value in [4] was 5 (Level 5: growth control rate is above 85%). In addition, the “Galium aparine, activity level” value in [5] is on record as 5 (Level 5: growth control rate is above 85%). The “Beckmannia syzigachne, activity level” value in experiment [6] is reported as 5 (Level 5: growth control rate is above 85%). The “Veronica didyma Tenore, activity level” value in [7] is 5 (Level 5: growth control rate is above 85%). Moreover, the “Abutilon theophrasti, activity level” value in experiment [8] is reported as 5 (Level 5: growth control rate is above 85%). The “Alopecurus japonicus, activity level” value in experiment [9] is 5 (Level 5: growth control rate is above 85%).
